Measured values taken from US7964624B1, “Inhibitors of serine proteases” (priority 2005, dated 2011).

What was measured:
[1] = target: T1, full-length hepatitis C viral protein NS3•4A (Hepatitis C virus genotype 1a, UniProt P27958); assay: biochemical; parameters: species or system HCV sub-type strain 1a; conditions: Enzyme Assay 2 (HCV NS3 Peptide Cleavage Assay) activity, apparent Ki class
T1 construct: hexa-histidine (N); made in house; host or cells: Sf9 insect cells (baculovirus, pVL1392)

HCV NS3 protease domain = target: T2, HCV NS3 protease domain (Hepatitis C virus genotype 1b, UniProt Q9WMX2); assay: biochemical; conditions: Enzyme Assay 1 (HCV NS3 Protease Domain Peptide Cleavage Assay) activity, apparent Ki class
T2 construct: The first 181 amino acids of NS3 (residues 1027-1207 of the viral polyprotein); hexa-histidine (C); made in house; host or cells: E. coli BL21/DE3 pLysS

| Compound | Ki [1] | Ki (HCV NS3 protease domain) |
| --- | --- | --- |
| CCC[C@H](NC(=O)[C@@H]1C[C@@]2(CC(c3cccc4cccnc34)=NO2)CN1C(=O)[C@@H](NC(=O)CC1CCCCC1)C(C)(C)C)C(=O)C(=O)NC1CC1 [Compound 31] | 100 to 500 nM |  |
| CCC[C@H](NC(=O)[C@@H]1C[C@]2(CC(c3cc(Cl)cc(OC)c3Cl)=NO2)CN1C(=O)[C@@H](NC(=O)CC1CCCCC1)C(C)(C)C)C(=O)C(=O)NC1CC1 [Compound 38] | 100 to 500 nM |  |
| CCC[C@H](NC(=O)[C@@H]1C[C@]2(CC(c3cccc(Cl)c3)=NO2)CN1C(=O)[C@@H](NC(=O)CC1CCCCC1)C(C)(C)C)C(=O)C(=O)N1CC(OCC2CCOC2)C1 (stereo partly shown) [Compound 49] | < 100 nM |  |
| CC(C)(C)[C@H](NC(=O)CC1CCCCC1)C(=O)N1C[C@@]2(CC(c3cccc(Cl)c3)=NO2)C[C@H]1C(=O)N[C@@H](CC1CC1)C(=O)C(=O)NC1CC1 [Compound 50] | < 100 nM |  |
| COc1cc(OC)c(C2=NO[C@]3(C2)CC(C(=O)N[C@@H](CC2CC2)C(=O)C(N)=O)N(C(=O)[C@@H](NC(=O)CC2CCCCCC2)C(C)(C)C)C3)cc1Cl (stereo partly shown) [Compound 59] | < 100 nM |  |
| CCC[C@H](NC(=O)[C@@H]1C[C@]2(CC(c3cccc4cccnc34)=NO2)CN1C(=O)[C@@H](NC(=O)CC1CCCCC1)C(C)(C)C)C(=O)C(=O)NC [Compound 68] | < 100 nM |  |
| CCC[C@H](NC(=O)[C@@H]1C[C@]2(CC(c3cccc([N+](=O)[O-])c3)=NO2)CN1C(=O)[C@@H](NC(=O)CC1CCCCC1)C(C)(C)C)C(=O)C(=O)NC1CC1 [Compound 89] | 100 to 500 nM |  |
| CCC[C@H](NC(=O)[C@@H]1C[C@]2(CC(c3cccc(Cl)c3)=NO2)CN1C(=O)[C@@H](NC(=O)OC(C)(C)C)C(C)(C)C)C(=O)C(=O)NC1CC1 [Compound 90] | < 100 nM |  |
| COc1cc(OC)c(C2=NO[C@]3(C2)C[C@@H](C(=O)N[C@@H](CC2CC2)C(=O)C(N)=O)N(C(=O)[C@@H](NC(=O)CC(C)(C)C)C(C)(C)C)C3)cc1Cl [Compound 104] | < 100 nM |  |
| CCC[C@H](NC(=O)[C@@H]1C[C@]2(CC(c3cc(Cl)c(OC)cc3OC)=NO2)CN1C(=O)[C@@H](NC(=O)CC1CCCCCC1)C(C)(C)C)C(=O)C(=O)NC1CC1 [Compound 129] | < 100 nM |  |
| CCC[C@H](NC(=O)[C@@H]1C[C@]2(CC(c3cc(Cl)c(OC)cc3OC)=NO2)CN1C(=O)[C@@H](NC(=O)OC(C)(C)C)C(C)(C)C)C(=O)C(=O)NC1CC1 [Compound 131] | < 100 nM |  |
| CCC[C@H](NC(=O)[C@@H]1C[C@]2(CC(c3cccc(Cl)c3F)=NO2)CN1C(=O)[C@@H](NC(=O)CC1CCCCC1)C(C)(C)C)C(=O)C(=O)NC1CC1 [Compound 169] | 100 to 500 nM |  |
| CCC[C@H](NC(=O)[C@@H]1C[C@]2(CC(c3cc(Cl)cc4c3OC(C)(C)C4)=NO2)CN1C(=O)[C@@H](NC(=O)CC1CCCCC1)C(C)(C)C)C(=O)C(=O)NC1CC1 [Compound 170] | < 100 nM |  |
| CC1(CC(=O)N[C@H](C(=O)N2C[C@@]3(CC(c4cccc(Cl)c4)=NO3)C[C@H]2C(=O)N[C@@H](CC2CC2)C(=O)C(N)=O)C(C)(C)C)CCOCC1 [Compound 184] | < 100 nM |  |
| COc1c(C)cc(C2=NO[C@]3(C2)C[C@@H](C(=O)N[C@@H](CC2CC2)C(=O)C(N)=O)N(C(=O)[C@@H](NC(=O)CC2CCCCC2)C(C)(C)C)C3)cc1Cl [Compound 195] | < 100 nM |  |
| CCC[C@H](NC(=O)[C@@H]1C[C@]2(CC(c3cccc(Cl)c3)=NO2)CN1C(=O)[C@@H](NC(=O)CC1CCCCC1)C1(OC)CC1)C(=O)C(=O)NC1CC1 [Compound 211] | < 100 nM |  |
| CC(C)(C)[C@H](NC(=O)CC1CCCCCC1)C(=O)N1C[C@@]2(CC(c3cccc(Cl)c3)=NO2)C[C@H]1C(=O)N[C@@H](CC1CC1)C(=O)C(N)=O [Compound 219] | < 100 nM |  |
| CCC[C@H](NC(=O)[C@@H]1C[C@]2(CC(c3cccc(Cl)c3)=NO2)CN1C(=O)[C@@H](NC(=O)CC1CCCCC1)C(C)(C)C)C(=O)C(=O)N1CC(OC[C@H]2CCCO2)C1 [Compound 238] | > 500 nM |  |
| CCC[C@H](NC(=O)[C@@H]1C[C@]2(CC(c3cc(Cl)cc(OC)c3)=NO2)CN1C(=O)[C@@H](NC(=O)CC1CCCCC1)C(C)(C)C)C(=O)C(=O)NC1CC1 [Compound 250] | < 100 nM |  |
| COc1cc(OC)c(C2=NO[C@]3(C2)C[C@@H](C(=O)N[C@@H](CC2CC2)C(=O)C(N)=O)N(C(=O)[C@@H](NC(=O)OC(C)(C)C)C(C)(C)C)C3)cc1Cl [Compound 264] | < 100 nM |  |
| CCC[C@H](NC(=O)[C@@H]1C[C@]2(CC(c3cc(Cl)c(OC)cc3OC)=NO2)CN1C(=O)[C@@H](NC(=O)CC1(C)CCOCC1)C(C)(C)C)C(=O)C(=O)NC1CC1 [Compound 286] | < 100 nM |  |
| CCC[C@H](NC(=O)[C@@H]1C[C@]2(CC(c3cc(Cl)c(OC)cc3OC)=NO2)CN1C(=O)[C@@H](NC(=O)CC(C)(C)C)C(C)(C)C)C(=O)C(=O)NC1CC1 [Compound 297] | < 100 nM |  |
| CCC[C@H](NC(=O)[C@@H]1C[C@]2(CC(c3cc(F)cc4c3OCOC4)=NO2)CN1C(=O)[C@@H](NC(=O)CC1CCCCC1)C(C)(C)C)C(=O)C(=O)NC1CC1 [Compound 305] | 100 to 500 nM |  |

| Compound | Ki [1] | Ki (HCV NS3 protease domain) |
| --- | --- | --- |
| CCC[C@H](NC(=O)[C@@H]1C[C@]2(CC(c3cccc(Cl)c3)=NO2)CN1C(=O)[C@@H](NC(=O)CC1CC2CCC1C2)C1(OC)CC1)C(=O)C(=O)NC1CC1 (stereo partly shown) [Compound 346] | < 100 nM |  |
| CCC[C@H](NC(=O)[C@@H]1C[C@]2(CC(c3cc(Cl)c(OC)cc3OC)=NO2)CN1C(=O)[C@@H](NC(=O)CC1(C)CCOCC1)C(C)(C)C)C(=O)C(=O)N1CCC1 [Compound 356] | < 100 nM |  |
| CCC[C@H](NC(=O)[C@@H]1C[C@]2(CC(c3cccc(Cl)c3)=NO2)CN1C(=O)[C@@H](NC(=O)CC1CCCCC1)C(C)(C)C)C(=O)C(=O)N1CC(OC2CCOC2)C1 (stereo partly shown) [Compound 368] | 100 to 500 nM |  |
| CCC[C@H](NC(=O)[C@@H]1C[C@]2(CC(c3cccc(Cl)c3)=NO2)CN1C(=O)[C@@H](NC(=O)OC1CCCC1)C(C)(C)C)C(=O)C(=O)NC1CC1 [Compound 369] | < 100 nM |  |
| CCC[C@H](NC(=O)[C@@H]1C[C@]2(CC(c3cccc(Cl)c3)=NO2)CN1C(=O)Cc1ccc(OC(F)(F)F)cc1)C(=O)C(=O)NC1CC1 [Compound 380] | > 500 nM |  |
| CCC[C@H](NC(=O)[C@@H]1C[C@]2(CC(c3cc(C)cc(Cl)c3)=NO2)CN1C(=O)[C@@H](NC(=O)CC1CCCCC1)C(C)(C)C)C(=O)C(=O)NC1CC1 [Compound 396] | < 100 nM |  |
| CCC[C@H](NC(=O)[C@@H]1C[C@]2(CC(c3cc(C)c(OCC4CC4)c(C)c3)=NO2)CN1C(=O)[C@@H](NC(=O)CC1CCCCC1)C(C)(C)C)C(=O)C(=O)NC1CC1 [Compound 406] | < 100 nM |  |
| CCC[C@H](NC(=O)[C@@H]1C[C@]2(CC(c3cc(Cl)c(OC)cc3OC)=NO2)CN1C(=O)[C@@H](NC(=O)CC1CC2CCC1C2)C(C)(C)C)C(=O)C(=O)NC1CC1 (stereo partly shown) [Compound 446] | < 100 nM |  |
| C[C@@H]1CC(CC(=O)N[C@H](C(=O)N2C[C@@]3(CC(c4cccc(Cl)c4)=NO3)C[C@H]2C(=O)N[C@@H](CC2CC2)C(=O)C(N)=O)C(C)(C)C)C[C@@H](C)O1 (stereo partly shown) [Compound 468] | < 100 nM |  |
| CC(C)(C)[C@H](NC(=O)[C@@H]1C[C@H]1c1ccccc1)C(=O)N1C[C@@]2(CC(c3cccc(Cl)c3)=NO2)C[C@H]1C(=O)N[C@@H](CC1CC1)C(=O)C(N)=O [Compound 485] | < 100 nM |  |
| CCC[C@H](NC(=O)[C@@H]1C[C@]2(CC(c3cc(C)c(OCC)c(C)c3)=NO2)CN1C(=O)[C@@H](NC(=O)CC1CCCCC1)C(C)(C)C)C(=O)C(=O)NC1CC1 [Compound 513] | < 100 nM |  |
| CNC(=O)C(=O)[C@H](CC1CC1)NC(=O)[C@@H]1C[C@]2(CC(c3cccc(Cl)c3)=NO2)CN1C(=O)[C@@H](NC(=O)CC1CCCCC1)C(C)(C)C [Compound 522] | < 100 nM |  |
| COc1cc(OC)c(C2=NO[C@]3(C2)C[C@@H](C(=O)N[C@@H](CC2CC2)C(=O)C(N)=O)N(C(=O)[C@@H](NC(=O)CC2(C)CCOCC2)C(C)(C)C)C3)cc1Cl [Compound 529] | < 100 nM |  |
| CCC[C@H](NC(=O)[C@@H]1C[C@]2(CC(c3ccc(OCC)c(Cl)c3)=NO2)CN1C(=O)[C@@H](NC(=O)CC1CCCCC1)C(C)(C)C)C(=O)C(=O)NC1CC1 [Compound 556] | < 100 nM |  |
| COc1cc(OC)c(C2=NO[C@]3(C2)C[C@@H](C(=O)N[C@@H](CC2CC2)C(=O)C(N)=O)N(C(=O)[C@@H](NC(=O)CC2CCCCC2)C(C)(C)C)C3)cc1Cl [Compound 562] | < 100 nM |  |
| CCC[C@H](NC(=O)[C@@H]1C[C@]2(CC(c3cccc(Cl)c3)=NO2)CN1C(=O)[C@@H](NC(=O)Nc1cccnc1)C(C)(C)C)C(=O)C(=O)NC1CC1 [Compound 576] |  | 100 to 500 nM |
| CC(C)C[C@H](NC(=O)[C@@H]1C[C@]2(CC(c3cccc(Cl)c3)=NO2)CN1C(=O)[C@@H](NC(=O)CC1CCCCC1)C(C)(C)C)C(=O)C(=O)NC1CC1 [Compound 579] |  | 100 to 500 nM |
| CCC[C@H](NC(=O)[C@@H]1C[C@]2(CC(c3ccccc3)=NO2)CN1C(=O)[C@@H](NC(=O)NCC)C(C)(C)C)C(=O)C(=O)NC1CC1 [Compound 580] |  | 100 to 500 nM |
| CCC[C@H](NC(=O)[C@@H]1C[C@]2(CC(c3cc(Cl)c(OC)cc3OC)=NO2)CN1C(=O)[C@@H](NC(=O)OC(C)(C)C)C(C)(C)C)C(=O)C(=O)N1CCC1 [Compound 581] | < 100 nM |  |
| CCC[C@H](NC(=O)[C@@H]1C[C@]2(CC(c3cccc(Cl)c3)=NO2)CN1C(=O)[C@@H](NC(=O)OCCc1cccs1)C(C)(C)C)C(=O)C(=O)NC1CC1 [Compound 582] |  | 100 to 500 nM |
| CCC[C@H](NC(=O)[C@@H]1C[C@]2(CC(c3cccc(Cl)c3)=NO2)CN1C(=O)[C@@H](NC(=O)NCc1ccccc1)C(C)(C)C)C(=O)C(=O)NC1CC1 [Compound 583] |  | 100 to 500 nM |
| CCC[C@H](NC(=O)[C@@H]1C[C@]2(CC(c3ccccc3)=NO2)CN1C(=O)c1ccc[nH]1)C(=O)C(=O)NC1CC1 [Compound 584] |  | > 500 nM |
| CCC[C@H](NC(=O)[C@@H]1C[C@]2(CC(c3cccc(Cl)c3)=NO2)CN1C(=O)[C@@H](NC(=O)Cc1cccc(OC(F)(F)F)c1)C(C)(C)C)C(=O)C(=O)NC1CC1 [Compound 585] |  | 100 to 500 nM |
